# Laboratory results from patent US9783500B2, “2-aminoquinoline-based compounds for potent and selective neuronal nitric oxide synthase inhibition” (priority 2014, dated 2017).
# Where a name gives a salt, the structure may show the parent alone.
# Target: rat nNOS (Rattus norvegicus (Rat), UniProt P29476)
# Conditions: Table 1; for Selectivity n/e / Selectivity n/i: ratio of Ki values; for Selectivity n/e: bovine eNOS/rat nNOS; for Selectivity n/i: murine iNOS/rat nNOS
Selectivity n/e,Selectivity n/i,SMILES,"Ki (read-out: Ki nNOS, purified rat nNOS, Ki calculated from IC50) [µM]"
30,97,"Cl.Cl.Nc1ccc2ccc(CCNCc3cccc(F)c3)cc2n1 [6 (Ex. 12), 7-[2-(3-Fluorobenzylamino)ethyl]quinolin-2-amine Dihydrochloride]",–
62,538,"Nc1ccc2ccc(CNCCCc3cccc(F)c3)cc2n1 [9 (Ex. 9), 7-{2-[3-(3-Fluorophenyl(propylamino)methyl]}quinolin-2-amine Dihydrochloride]",–
–,–,"Nc1ccc2cc(CCNCCCc3cccc(F)c3)ccc2n1 [13 (Ex. 30), 6-{2-[3-(3-Fluorophenyl(propylamino)ethyl]}quinolin-2-amine Dihydrochloride]",4.37
–,280,"Cl.Cl.Nc1ccc2ccc(CCNCCc3ccc(F)cc3)cc2n1 [14 (Ex. 16), 7-[(4-Fluorophenethylamino)ethyl]quinolin-2-amine Dihydrochloride]",–
47,91,"Cl.Cl.Nc1ccc2ccc(CCNCCc3ccc(Cl)cc3)cc2n1 [16 (Ex. 18), 7-[(4-Chlorophenethylamino)ethyl]quinolin-2-amine Dihydrochloride]",–

SMILES,Selectivity n/e,Selectivity n/i,"Ki (read-out: Ki nNOS, purified rat nNOS, Ki calculated from IC50) [µM]"
"Cl.Cl.Nc1ccc2ccc(CNCCc3cccc(F)c3)cc2n1 [5 (Ex. 8), 7-[(3-Fluorophenethylamino)methyl]quinolin-2-amine Dihydrochloride]",6.2,–,–
